This is an account of results in publication PMC3744471, “Mitochondria Are the Target Organelle of Differentiation-Inducing Factor-3, an Anti-Tumor Agent Isolated from Dictyostelium Discoideum” (PLoS ONE, 2013).

Read-outs that look alike come from different tables or passages of the source. Bounds are passed on as bounds.

The test system of one test is HeLa cells. The test can be described thus: Cell growth assay (Alamar blue), HeLa. Type of test: cell-based, human. The method, then:
HeLa, LM8, and 3T3-L1 cells were cultured for 3 days at 2.5–5×10^3 cells/well in 12-well plates with each well filled with 1 ml of DMEM-FBS (for HeLa and 3T3-L1) or MEM-α-FBS (for LM8) together with drugs at various concentrations. Then, the incubation media were discarded and the cells were washed with 1 ml of PBS(–) (20 mM phosphate buffered saline, pH 7.4) and incubated with 1 ml of fresh DMEM-FBS (HeLa and 3T3-L1) or MEM-α-FBS (LM8) containing 5% (v/v) of Alamar blue (a cell number indicator; Wako Pure Chemical Industries, Osaka, Japan) until the color changed. […] Relative cell numbers were determined for each concentration for each drug and the IC50 was determined from the dose-response curves.

Test [1] deals with mitochondrial malate dehydrogenase (mMDH). Details: method as in PMID 20173310. The settings on record: cited from earlier work.
The test system of test [2] is mitochondrial respiration. More on the design: method as in PMID 7777565. The conditions noted are these: in D. discoideum; read-out: IC50 for inhibition (uncoupling) of mitochondrial respiration; cited from earlier work.
The test system of test [3] is calmodulin-dependent cyclic nucleotide phosphodiesterase (PDE1). Details: method as in PMID 15059913. The conditions noted are these: cited from earlier work.
A further test has as its system LM8 cells. In words: Cell growth assay (Alamar blue), LM8. Type of test: cell-based, mouse. The conditions noted are these: Mus musculus, 72 h; LM8 cells, 3 days, Alamar blue. As to the method:
(§1) HeLa, LM8, and 3T3-L1 cells were cultured for 3 days at 2.5–5×10^3 cells/well in 12-well plates with each well filled with 1 ml of DMEM-FBS (for HeLa and 3T3-L1) or MEM-α-FBS (for LM8) together with drugs at various concentrations. Then, the incubation media were discarded and the cells were washed with 1 ml of PBS(–) (20 mM phosphate buffered saline, pH 7.4) and incubated with 1 ml of fresh DMEM-FBS (HeLa and 3T3-L1) or MEM-α-FBS (LM8) containing 5% (v/v) of Alamar blue (a cell number indicator; Wako Pure Chemical Industries, Osaka, Japan) until the color changed. The relative cell number was assessed by measuring absorbance at 570 nm (reference at 595 nm) as described previously, [14]; DIF-related compounds and BODIPY-conjugated compounds hardly disturbed the cell number assessment with Alamar blue (data not shown), probably because the additive compounds were washed out when cell number was assessed. For determination of the 50% inhibitory concentration (IC50) of each drug, the cells were cultured for 3 days in the presence of each drug at various concentrations. Relative cell numbers were determined for each concentration for each drug and the IC50 was determined from the dose-response curves.
(§2) Supplementary file pone.0072118.s001.tif: Figure S1 Effects of BODIPY-DIF-3 and CCCP on cell growth, and cellular localization of BODIPY-DIF-3 in LM8 cells. (A) Cells were incubated for 4 days with 5–20 µM of BODIPY-DIF-3 (closed circles) or 2–10 µM of CCCP (closed triangles), and relative cell number was assessed by the use of Alamar blue. Data are the mean values and SD (bars) of three independent experiments. (B) Cells were incubated for 0.5 h or 3 days with 20 µM of BODIPY-DIF-3, washed free of the additive, and observed microscopically. (C) Cells were incubated for 0.5 h with BODIPY-DIF-3 (20 µM), Hoechst (0.1 µg/ml), and MitoTracker (0.1 µM), washed free of the additives, and observed by using a high-magnification fluorescence microscope. (D) Cells were incubated for 3 days with BODIPY-DIF-3 (20 µM) and then for 0.5 h with Hoechst (0.1 µg/ml) and MitoTracker (0.1 µM). Cells were washed free of the additives and observed by using a high-magnification fluorescence microscope. (TIF) Click here for additional data file.

The test system of another test is 3T3-L1 cells. The test can be described thus: Cell growth assay (Alamar blue), 3T3-L1. The format is cell-based, mouse. The conditions noted are these: Mus musculus, 72 h; 3T3-L1 cells, 3 days, Alamar blue. As to the method: as §1
as §2, with “pone.0072118.s002.tif:” for “pone.0072118.s001.tif:”, “S2” for “S1”, “3T3-L1” for “LM8”

The next test relates to mouse liver mitochondria. The test can be described thus: Mitochondrial oxygen consumption (Clark-type oxygen electrode). Type of test: biochemical. The method, then: Mitochondria were isolated from mouse liver (ICR; 7–10 week-old females) by differential centrifugation as described previously. Cells were homogenized in a Potter glass homogenizer with H-Buffer (250 mM sucrose, 10 mM Tris-HCl pH 7.4), and centrifuged at 800g for 1 min at 4°C. The supernatant was centrifuged at 6,000g for 5 min, and the resulting pellet, the crude mitochondrial fraction, was suspended in H-Buffer. The suspension was layered over a discontinuous sucrose gradient consisting of 1.1 M and 1.6 M sucrose in a Tris buffer (10 mM Tris-HCl pH 7.4), and centrifuged for 3 h at 90,000g at 4°C. The interface was collected in Tris buffer and centrifuged at 6,000g for 5 min. The resulting pellets were suspended in Tris buffer and used for experiments after confirming the presence of the mitochondrial marker cytochrome c.
Mitochondrial oxygen consumption was determined using a Clark-type oxygen electrode (Strathkelvin Instruments Ltd., North Lanarkshire, Scotland) as described, [39]. The mitochondria-enriched fraction was incubated at 30°C in oxygen measurement buffer (225 mM mannitol, 75 mM sucrose, 10 mM KCl, 0.1 mM EDTA, 3 mM phosphate, 5 mM succinate, 5 mM glutamate, and 20 mM Tris-HCl pH 7.4) in the presence or absence of various concentrations of the DIF-like molecules or CCCP. After recording ‘State 4’ of the respiration reaction, an aliquot of ADP was added to a final concentration of 200 µM to induce ‘State 3’. The PC100 (100% promoting concentration) of each additive was defined as the drug concentration that doubled the basal rate of oxygen consumption during State 3, which was calculated from the dose-response plot for the rate of oxygen consumption (Figure 8).

In test [4] the test system is cyclin D1 and cyclin D3 in HeLa cells. In words: Western blotting of cyclin D expression. Type of test: cell-based, human. The settings on record: 20 h, DIF-3 20 µM, Bu-DIF-3 5–7.5 µM, BODIPY-DIF-3 20 µM, CCCP 10 µM, azide 0.01%. The method, then:
HeLa cells were incubated for 20 h with 1 ml of DMEM-FBS containing the indicated additives in 12-well plates (2–4×10^5 cells/well), washed twice with PBS(–), harvested by adding 100–200 µl of an SDS-sample buffer solution (in proportion to cell density: relative cell number), sonicated (heated), and used for SDS-PAGE. Western blot transfer and immunoblotting were performed as described previously, by using a primary antibody for cyclin D1, cyclin D2, cyclin D3, or GAPDH, and a second antibody, an alkaline phosphatase-conjugated anti-mouse or anti-rabbit IgG antibody. […] Visualized protein bands were then digitized and quantified by using Adobe Photoshop CS4 (version 11.0) (Adobe, San Jose, CA, USA) and ImageJ Software (version 1.4) (http://rsb.info.nih.gov/ij/).

For `CCCCCC(=O)c1c(O)c(Cl)c(OC)c(Cl)c1O` [DIF-1, 1-(3,5-dichloro-2,6-dihydroxy-4-methoxyphenyl)hexan-1-one, reference compound], the “Effect on cell growth (relative cell number)” value in the test with HeLa cells (HeLa, 20 µM, 3 days) is reported as “significantly suppressed”. Also, the “Binding to and inhibition of mMDH” value in test [1] was “binds to mitochondrial malate dehydrogenase (mMDH) and inhibits its activity”. In test [2], the IC50 was 0.54 µM. The “Inhibition of PDE1” value in test [3] is given as “direct inhibitors of PDE1”.
As for `CCCCNC(=O)CCC1=[N+]2C(=Cc3c(C)cc(C)n3[B-]2(F)F)C=C1` [Bu-BODIPY], the IC50 was more than 20 µM with LM8 cells; more than 20 µM in the test on HeLa cells (Homo sapiens, 72 h, HeLa cells, 3 days, Alamar blue); more than 20 µM with 3T3-L1 cells. In addition, the “Effect on cell growth (relative cell number)” value in the test with HeLa cells (HeLa, 5–20 µM (Bu-BODIPY up to 20 µM), 3 days) was “hardly affected”. In the test with mouse liver mitochondria (1–100 µM), the “Effect on basal rate of O2 consumption” value is listed as “had no effect”. In addition, the “PC100 (µM) for Mito. O2 consumption” value in the test on mouse liver mitochondria (100% promoting concentration: doubles the basal rate of oxygen consumption, 30°C) is recorded as more than 100 µM.
In the case of `[N-]=[N+]=[N-].[Na+]` [azide, NaN3, reference compound], the “Effect on cell growth (relative cell number)” value in the test on HeLa cells is listed as “suppressed cell growth”. Also, in test [4], the “Expression of cyclin D1” value is on record as “suppressed” and the “Expression of cyclin D3” value is recorded as “but not of cyclin D3”.
